According to patent publication US20090285773A1, “Hepatitis C Virus Inhibitors” (Bristol-Myers Squibb Company, priority 2008, published 2009):

Target: T1, human neutrophil elastase (HNE) (Homo sapiens, UniProt P08246)
T1 sequence (P08246 30-267): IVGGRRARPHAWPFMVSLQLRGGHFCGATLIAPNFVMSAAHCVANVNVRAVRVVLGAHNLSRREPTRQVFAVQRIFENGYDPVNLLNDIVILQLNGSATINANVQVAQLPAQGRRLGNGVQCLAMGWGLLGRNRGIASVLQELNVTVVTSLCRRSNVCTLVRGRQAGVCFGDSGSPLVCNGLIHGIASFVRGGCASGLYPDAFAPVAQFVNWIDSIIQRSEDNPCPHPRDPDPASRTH
Assay: Specificity assay, human neutrophil elastase
Format: biochemical
Details: read-out: HLE activity in the specificity assays
Method: The specificities of compounds of the present disclosure were determined against a variety of serine proteases: human neutrophil elastase (HNE), porcine pancreatic elastase (PPE) and human pancreatic chymotrypsin and one cysteine protease: human liver cathepsin B. In all cases a 96-well plate format protocol using a fluorometric Amino-Methyl-Coumarin (AMC) substrate specific for each enzyme was used as described previously (PCT Patent Application No. WO 00/09543) with some modifications to the serine protease assays. All enzymes were purchased from Sigma, EMDbiosciences while the substrates were from Bachem, Sigma and EMDbiosciences.
Compound concentrations varied from 100 to 0.4 μM depending on their potency. The enzyme assays were each initiated by addition of substrate to enzyme-inhibitor pre-incubated for 10 min at room temperature and hydrolysis to 15% conversion as measured on cytofluor. […]
The percentage of inhibition was calculated using the formula: […]

`COc1ccc2c(O[C@@H]3C[C@H]4C(=O)N[C@]5(C(=O)NS(=O)(=O)C6CC6)C[C@H]5/C=C\CCCCC[C@H](Nc5ccc(OC)nc5)C(=O)N4C3)nccc2c1` (single isomer, unassigned) [Compound 1] gave an IC50 of 1500 nM.
